Experiment: Additional benefits of taking betaine in people
Assay type: in vivo
Description: While the main benefit of a person or pet taking vitamin C and betaine in combination is the prevention/suppression of tumors, as mentioned before, additional benefits can be obtained depending upon the levels taken. Betaine is known to improve cardiovascular health, and can benefit people with fatty deposits in the liver. […] After only a few weeks of taking the betaine, cholesterol levels are reduced and the ability to lose weight is improved.

C[N+](C)(C)CC(=O)[O-] [betaine, trimethylglycine]
tendency to be light headed when getting up after prolonged squatting or kneeling (after a few doses at about one and a half to about three grams per day, especially older people): considerably lessened | cholesterol levels (after only a few weeks of taking the betaine): reduced
